Experiments:
barley [1] = test: Test B preemergence/postemergence greenhouse plant response rating 0 to 10; format: in vivo, Hordeum vulgare; conditions: 0 to 10 scale
Procedure, shortened: (§1)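 Postemergence treatment of plants two to eighteen cm tall ran alongside preemergence treatment of planted seed, each using compound in a non-phytotoxic solvent.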

bedstraw [2] = test: as above; format: in vivo, Galium aparine; conditions: 0 to 10 scale
Procedure, shortened: as §1

blackgrass [3] = test: as above; format: in vivo, Alopecurus myosuroides; conditions: 0 to 10 scale
Procedure, shortened: as §1

cheatgrass = test: as above; format: in vivo, Bromus secalinus; conditions: 0 to 10 scale
Procedure, shortened: as §1

cotton = test: as above; format: in vivo, Gossypium hirsutum; conditions: 0 to 10 scale
Procedure, shortened: as §1

rape = test: as above; format: in vivo, Brassica napus; conditions: 0 to 10 scale
Procedure, shortened: as §1

rice = test: as above; format: in vivo, Oryza sativa; conditions: 0 to 10 scale
Procedure, shortened: as §1

sorghum [4] = test: as above; format: in vivo, Sorghum bicolor; conditions: 0 to 10 scale
Procedure, shortened: as §1

wheat = test: as above; format: in vivo, Triticum aestivum; conditions: 0 to 10 scale
Procedure, shortened: as §1

barley [5] = test: Test C preemergence/postemergence greenhouse plant response rating 0 to 100; format: in vivo, Hordeum vulgare; conditions: POSTEMERGENCE
Procedure, shortened: (§2)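 Compounds in non-phytotoxic solvent went onto sandy loam before emergence (seeded one day earlier) or onto plants at the one-to-four leaf stage. Duck salad was treated via flood water (~2.5 cm, maintained) over silt loam.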

bedstraw [6] = test: as above; format: in vivo, Galium aparine; conditions: POSTEMERGENCE
Procedure, shortened: as §2

blackgrass [7] = test: as above; format: in vivo, Alopecurus myosuroides; conditions: POSTEMERGENCE
Procedure, shortened: as §2

pigweed = test: as above; format: in vivo, Amaranthusretroflexus; conditions: POSTEMERGENCE
Procedure, shortened: as §2

ryegrass = test: as above; format: in vivo, Lolium multiflorum; conditions: POSTEMERGENCE
Procedure, shortened: as §2

sorghum [8] = test: as above; format: in vivo, Sorghum bicolor; conditions: POSTEMERGENCE
Procedure, shortened: as §2

sugar beet = test: as above; format: in vivo, Beta vulgaris; conditions: POSTEMERGENCE
Procedure, shortened: as §2

wild buckwheat = test: as above; format: in vivo, Polygonum convolvulus; conditions: POSTEMERGENCE
Procedure, shortened: as §2

duck salad = test: Test C flood test plant response rating 0 to 100; format: in vivo, Heteranthera limosa
Procedure, shortened: as §2

`COCN1C(=O)COc2cc(F)c(-c3nn4c(c3Cl)CCCC4)cc21` [Compound 55] was tested, and the “Plant response rating, Barley” value (barley [1]; POSTEMERGENCE, Rate 10 g/ha) was 5, the “Plant response rating, Barley” value (barley [1]; POSTEMERGENCE, Rate 50 g/ha) was 4 and the “Plant response rating, Barley” value (barley [1]; PREEMERGENCE, Rate 10 g/ha) was 0. The “Plant response rating, Barley” value (barley [1]; PREEMERGENCE, Rate 50 g/ha) was 3, the “Plant response rating, Bedstraw” value (bedstraw [2]; POSTEMERGENCE, Rate 10 g/ha) was 9 and the “Plant response rating, Bedstraw” value (bedstraw [2]; POSTEMERGENCE, Rate 50 g/ha) was 10. The “Plant response rating, Bedstraw” value (bedstraw [2]; PREEMERGENCE, Rate 10 g/ha) was 3, the “Plant response rating, Bedstraw” value (bedstraw [2]; PREEMERGENCE, Rate 50 g/ha) was 10 and the “Plant response rating, Blackgrass” value (blackgrass [3]; POSTEMERGENCE, Rate 10 g/ha) was 5. For the same molecule, the “Plant response rating, Blackgrass” value (blackgrass [3]; POSTEMERGENCE, Rate 50 g/ha) was 7, the “Plant response rating, Blackgrass” value (blackgrass [3]; PREEMERGENCE, Rate 10 g/ha) was 3 and the “Plant response rating, Blackgrass” value (blackgrass [3]; PREEMERGENCE, Rate 50 g/ha) was 7. For the same molecule, the “Plant response rating, Cheatgrass” value (cheatgrass; POSTEMERGENCE, Rate 10 g/ha) was 6, the “Plant response rating, Cheatgrass” value (cheatgrass; POSTEMERGENCE, Rate 50 g/ha) was 8 and the “Plant response rating, Cheatgrass” value (cheatgrass; PREEMERGENCE, Rate 10 g/ha) was 1. The “Plant response rating, Cheatgrass” value (cheatgrass; PREEMERGENCE, Rate 50 g/ha) was 5, the “Plant response rating, Cotton” value (cotton; POSTEMERGENCE, Rate 10 g/ha) was 10 and the “Plant response rating, Cotton” value (cotton; POSTEMERGENCE, Rate 50 g/ha) was 10. For the same molecule, the “Plant response rating, Cotton” value (cotton; PREEMERGENCE, Rate 10 g/ha) was 6, the “Plant response rating, Cotton” value (cotton; PREEMERGENCE, Rate 50 g/ha) was 1 and the “Plant response rating, Rape” value (rape; POSTEMERGENCE, Rate 10 g/ha) was 10. For the same molecule, the “Plant response rating, Rape” value (rape; POSTEMERGENCE, Rate 50 g/ha) was 10, the “Plant response rating, Rape” value (rape; PREEMERGENCE, Rate 50 g/ha) was 6 and the “Plant response rating, Rice” value (rice; POSTEMERGENCE, Rate 10 g/ha) was 3. For the same molecule, the “Plant response rating, Rice” value (rice; POSTEMERGENCE, Rate 50 g/ha) was 4, the “Plant response rating, Rice” value (rice; PREEMERGENCE, Rate 50 g/ha) was 0 and the “Plant response rating, Sorghum” value (sorghum [4]; POSTEMERGENCE, Rate 10 g/ha) was 3. The “Plant response rating, Sorghum” value (sorghum [4]; POSTEMERGENCE, Rate 50 g/ha) was 4, the “Plant response rating, Sorghum” value (sorghum [4]; PREEMERGENCE, Rate 50 g/ha) was 0 and the “Plant response rating, Wheat” value (wheat; POSTEMERGENCE, Rate 10 g/ha) was 8. For the same molecule, the “Plant response rating, Wheat” value (wheat; POSTEMERGENCE, Rate 50 g/ha) was 6, the “Plant response rating, Wheat” value (wheat; PREEMERGENCE, Rate 50 g/ha) was 4 and the “Plant response rating Barley Igri” value (barley [5]; 62 g/ha, 0 to 100 scale) was 50. For the same molecule, the “Plant response rating (0 to 100), Barley Igri” value (barley [5]; Rate 1 g/ha) was 20, the “Plant response rating (0 to 100), Barley Igri” value (barley [5]; Rate 4 g/ha) was 30 and the “Plant response rating (0 to 100), Barley Igri” value (barley [5]; Rate 16 g/ha) was 40. For the same molecule, the “Plant response rating, Bedstraw” value (bedstraw [6]; 62 g/ha, 0 to 100 scale) was 100, the “Plant response rating (0 to 100), Bedstraw” value (bedstraw [6]; Rate 1 g/ha) was 30 and the “Plant response rating (0 to 100), Bedstraw” value (bedstraw [6]; Rate 4 g/ha) was 90. For the same molecule, the “Plant response rating (0 to 100), Bedstraw” value (bedstraw [6]; Rate 16 g/ha) was 100, the “Plant response rating, Blackgrass” value (blackgrass [7]; 62 g/ha, 0 to 100 scale) was 60 and the “Plant response rating (0 to 100), Blackgrass” value (blackgrass [7]; Rate 1 g/ha) was 30. The “Plant response rating (0 to 100), Blackgrass” value (blackgrass [7]; Rate 4 g/ha) was 40, the “Plant response rating (0 to 100), Blackgrass” value (blackgrass [7]; Rate 16 g/ha) was 50 and the “Plant response rating Pigweed” value (pigweed; 62 g/ha, 0 to 100 scale) was 100. For the same molecule, the “Plant response rating (0 to 100), Pigweed” value (pigweed; Rate 1 g/ha) was 100, the “Plant response rating (0 to 100), Pigweed” value (pigweed; Rate 4 g/ha) was 100 and the “Plant response rating (0 to 100), Pigweed” value (pigweed; Rate 16 g/ha) was 100. For the same molecule, the “Plant response rating Ryegrass” value (ryegrass; 62 g/ha, 0 to 100 scale) was 60, the “Plant response rating (0 to 100), Ryegrass” value (ryegrass; Rate 1 g/ha) was 10 and the “Plant response rating (0 to 100), Ryegrass” value (ryegrass; Rate 4 g/ha) was 30. The “Plant response rating (0 to 100), Ryegrass” value (ryegrass; Rate 16 g/ha) was 40, the “Plant response rating, Sorghum” value (sorghum [8]; 62 g/ha, 0 to 100 scale) was 60 and the “Plant response rating (0 to 100), Sorghum” value (sorghum [8]; Rate 1 g/ha) was 30. The “Plant response rating (0 to 100), Sorghum” value (sorghum [8]; Rate 4 g/ha) was 40, the “Plant response rating (0 to 100), Sorghum” value (sorghum [8]; Rate 16 g/ha) was 50 and the “Plant response rating, Sugar beet” value (sugar beet; 62 g/ha, 0 to 100 scale) was 100. The “Plant response rating (0 to 100), Sugar beet” value (sugar beet; Rate 1 g/ha) was 100, the “Plant response rating (0 to 100), Sugar beet” value (sugar beet; Rate 4 g/ha) was 100 and the “Plant response rating (0 to 100), Sugar beet” value (sugar beet; Rate 16 g/ha) was 100. The “Plant response rating, Wild buckwheat” value (wild buckwheat; 62 g/ha, 0 to 100 scale) was 100, the “Plant response rating (0 to 100), Wild buckwheat” value (wild buckwheat; Rate 1 g/ha) was 60 and the “Plant response rating (0 to 100), Wild buckwheat” value (wild buckwheat; Rate 4 g/ha) was 100. The “Plant response rating (0 to 100), Wild buckwheat” value (wild buckwheat; Rate 16 g/ha) was 100, the “Plant response rating (0 to 100), Duck salad” value (duck salad; POSTEMERGENCE section, flood test, Rate 1 g/ha) was 0 and the “Plant response rating (0 to 100), Duck salad” value (duck salad; POSTEMERGENCE section, flood test, Rate 4 g/ha) was 0. For the same molecule, the “Plant response rating (0 to 100), Duck salad” value (duck salad; Rate 16 g/ha, under POSTEMERGENCE head (flood test species)) was 10 and the “Plant response rating Duck salad” value (duck salad; flood test species listed under POSTEMERGENCE, 62 g/ha, 0 to 100 scale) was 50.
